# Test results taken from patent publication US7807439B2, “Staphylococcus aureus-specific detection media and identifying and/or counting method using same” (Biomerieux S.A., priority 2001, dated 2010).
# Legend:
# S. aureus 8311065 = assay: Experiment 7: effect of maltose on α-glucosidase activity, weak inocula; format: cell-based, Staphylococcus aureus; design: key: 0 corresponds to a lack of activity; 0.1 corresponds to the presence of a trace of coloration; 0.5 corresponds to the presence of a very pale coloration; 1 corresponds to the presence of a clear coloration of weak intensity; 1.5 corresponds to the presence of a coloration which is intermediate between colorations 1 and 2; 2 corresponds to the presence of a true coloration of medium intensity; 2.5 corresponds to the presence of a coloration which is intermediate between colorations 2 and 3; 3 corresponds to the presence of an intense coloration; 3.5 corresponds to the presence of a coloration which is intermediate between colorations 3 and 4; 4 corresponds to the presence of a very intense coloration; settings: strain 3
# Procedure: (§1) The maltose is solubilized in water at a concentration of, for example, 100 g/l, and then a sufficient volume to obtain the final concentrations above is added to the three molten media. The Staphylococcal strains derived from the bioMérieux internal collection were seeded onto each one of the chromogenic media on their own (closely spaced perpendicular streaks over the entire surface of the dish) using a suspension at 0.5 MacFarland diluted to 1/30000. The dishes were incubated at 37° C. for 48 hours. The colonies formed were examined visually after 18, 24 and 48 hours of incubation and the intensity of coloration of the colonies was marked. The coloration was noted and the intensity of these colorations was marked. The reading scale is the same as that used above for tables 2 and 4.
# S. aureus 7509008 = assay: as above; format: cell-based, Staphylococcus aureus; design: key: 0 corresponds to a lack of activity; 0.1 corresponds to the presence of a trace of coloration; 0.5 corresponds to the presence of a very pale coloration; 1 corresponds to the presence of a clear coloration of weak intensity; 1.5 corresponds to the presence of a coloration which is intermediate between colorations 1 and 2; 2 corresponds to the presence of a true coloration of medium intensity; 2.5 corresponds to the presence of a coloration which is intermediate between colorations 2 and 3; 3 corresponds to the presence of an intense coloration; 3.5 corresponds to the presence of a coloration which is intermediate between colorations 3 and 4; 4 corresponds to the presence of a very intense coloration; settings: strain 1
# Procedure: as §1
# S. aureus 0201035 = assay: as above; format: cell-based, Staphylococcus aureus; design: key: 0 corresponds to a lack of activity; 0.1 corresponds to the presence of a trace of coloration; 0.5 corresponds to the presence of a very pale coloration; 1 corresponds to the presence of a clear coloration of weak intensity; 1.5 corresponds to the presence of a coloration which is intermediate between colorations 1 and 2; 2 corresponds to the presence of a true coloration of medium intensity; 2.5 corresponds to the presence of a coloration which is intermediate between colorations 2 and 3; 3 corresponds to the presence of an intense coloration; 3.5 corresponds to the presence of a coloration which is intermediate between colorations 3 and 4; 4 corresponds to the presence of a very intense coloration; settings: strain 5
# Procedure: as §1
# S. aureus 8507276 = assay: as above; format: cell-based, Staphylococcus aureus; design: key: 0 corresponds to a lack of activity; 0.1 corresponds to the presence of a trace of coloration; 0.5 corresponds to the presence of a very pale coloration; 1 corresponds to the presence of a clear coloration of weak intensity; 1.5 corresponds to the presence of a coloration which is intermediate between colorations 1 and 2; 2 corresponds to the presence of a true coloration of medium intensity; 2.5 corresponds to the presence of a coloration which is intermediate between colorations 2 and 3; 3 corresponds to the presence of an intense coloration; 3.5 corresponds to the presence of a coloration which is intermediate between colorations 3 and 4; 4 corresponds to the presence of a very intense coloration; settings: strain 2
# Procedure: as §1
# S. intermedius 8407075 = assay: as above; format: cell-based, Staphylococcus intermedius; design: key: 0 corresponds to a lack of activity; 0.1 corresponds to the presence of a trace of coloration; 0.5 corresponds to the presence of a very pale coloration; 1 corresponds to the presence of a clear coloration of weak intensity; 1.5 corresponds to the presence of a coloration which is intermediate between colorations 1 and 2; 2 corresponds to the presence of a true coloration of medium intensity; 2.5 corresponds to the presence of a coloration which is intermediate between colorations 2 and 3; 3 corresponds to the presence of an intense coloration; 3.5 corresponds to the presence of a coloration which is intermediate between colorations 3 and 4; 4 corresponds to the presence of a very intense coloration; settings: strain 6
# Procedure: as §1
# Staphylococcus aureus = assay: Experiment 7: effect of maltose, summary; format: cell-based; settings: in particular critical strains (3, 4, 5 and 6)
# Procedure: as §1, with “marked.” for “marked. The coloration was noted and the intensity of these colorations was marked. The reading scale is the same as that used above for tables 2 and 4.”
structure (smiles),measurement,setting,value
"OC[C@H]1O[C@H](O[C@H]2[C@H](O)[C@@H](O)C(O)O[C@@H]2CO)[C@H](O)[C@@H](O)[C@@H]1O (mixture of isomers) [Maltose, maltose]",Intensity of coloration of the colonies,"S. aureus 8311065; 18 h, Maltose 100 mg/l",1.3
same,Intensity of coloration of the colonies,"S. aureus 8311065; 18 h, Maltose 300 mg/l",1.3
same,Intensity of coloration of the colonies,"S. aureus 8311065; 18 h, Maltose 400 mg/l",1.3
same,Intensity of coloration of the colonies,"S. aureus 8311065; 24 h, Maltose 100 mg/l",1.7
same,Intensity of coloration of the colonies,"S. aureus 8311065; 24 h, Maltose 300 mg/l",1.7
same,Intensity of coloration of the colonies,"S. aureus 8311065; 24 h, Maltose 400 mg/l",2
same,Intensity of coloration of the colonies,"S. aureus 8311065; >40 h, Maltose 100 mg/l",2.7
same,Intensity of coloration of the colonies,"S. aureus 8311065; >40 h, Maltose 300 mg/l",2.7
same,Intensity of coloration of the colonies,"S. aureus 8311065; >40 h, Maltose 400 mg/l",2.7
same,Intensity of coloration of the colonies,"S. aureus 7509008; 18 h, Maltose 100 mg/l",1.3
same,Intensity of coloration of the colonies,"S. aureus 7509008; 18 h, Maltose 300 mg/l",1.3
same,Intensity of coloration of the colonies,"S. aureus 7509008; 18 h, Maltose 400 mg/l",1.7
same,Intensity of coloration of the colonies,"S. aureus 7509008; 24 h, Maltose 100 mg/l",1.7
same,Intensity of coloration of the colonies,"S. aureus 7509008; 24 h, Maltose 300 mg/l",1.7
same,Intensity of coloration of the colonies,"S. aureus 7509008; 24 h, Maltose 400 mg/l",3
same,Intensity of coloration of the colonies,"S. aureus 7509008; >40 h, Maltose 100 mg/l",2
same,Intensity of coloration of the colonies,"S. aureus 7509008; >40 h, Maltose 300 mg/l",2
same,Intensity of coloration of the colonies,"S. aureus 7509008; >40 h, Maltose 400 mg/l",2.7
same,Intensity of coloration of the colonies,"S. aureus 0201035; 18 h, Maltose 100 mg/l",0.3
same,Intensity of coloration of the colonies,"S. aureus 0201035; 18 h, Maltose 300 mg/l",0.5
same,Intensity of coloration of the colonies,"S. aureus 0201035; 18 h, Maltose 400 mg/l",0.5
same,Intensity of coloration of the colonies,"S. aureus 0201035; 24 h, Maltose 100 mg/l",0.5
same,Intensity of coloration of the colonies,"S. aureus 0201035; 24 h, Maltose 300 mg/l",1
same,Intensity of coloration of the colonies,"S. aureus 0201035; 24 h, Maltose 400 mg/l",1
same,Intensity of coloration of the colonies,"S. aureus 0201035; >40 h, Maltose 100 mg/l",0.8
same,Intensity of coloration of the colonies,"S. aureus 0201035; >40 h, Maltose 300 mg/l",1
same,Intensity of coloration of the colonies,"S. aureus 0201035; >40 h, Maltose 400 mg/l",1.3
same,Intensity of coloration of the colonies,"S. aureus 8507276; 18 h, Maltose 100 mg/l",2
same,Intensity of coloration of the colonies,"S. aureus 8507276; 18 h, Maltose 300 mg/l",2
same,Intensity of coloration of the colonies,"S. aureus 8507276; 18 h, Maltose 400 mg/l",2
same,Intensity of coloration of the colonies,"S. aureus 8507276; 24 h, Maltose 100 mg/l",2.7
same,Intensity of coloration of the colonies,"S. aureus 8507276; 24 h, Maltose 300 mg/l",2.7
same,Intensity of coloration of the colonies,"S. aureus 8507276; 24 h, Maltose 400 mg/l",2.7
same,Intensity of coloration of the colonies,"S. aureus 8507276; >40 h, Maltose 100 mg/l",3
same,Intensity of coloration of the colonies,"S. aureus 8507276; >40 h, Maltose 300 mg/l",3
same,Intensity of coloration of the colonies,"S. aureus 8507276; >40 h, Maltose 400 mg/l",3
same,Intensity of coloration of the colonies,"S. intermedius 8407075; 18 h, Maltose 100 mg/l",0.3
same,Intensity of coloration of the colonies,"S. intermedius 8407075; 18 h, Maltose 300 mg/l",0.3
same,Intensity of coloration of the colonies,"S. intermedius 8407075; 18 h, Maltose 400 mg/l",0.3
same,Intensity of coloration of the colonies,"S. intermedius 8407075; 24 h, Maltose 100 mg/l",0.6
same,Intensity of coloration of the colonies,"S. intermedius 8407075; 24 h, Maltose 300 mg/l",0.8
same,Intensity of coloration of the colonies,"S. intermedius 8407075; 24 h, Maltose 400 mg/l",1
same,Intensity of coloration of the colonies,"S. intermedius 8407075; >40 h, Maltose 100 mg/l",0.8
same,Intensity of coloration of the colonies,"S. intermedius 8407075; >40 h, Maltose 300 mg/l",1
same,Intensity of coloration of the colonies,"S. intermedius 8407075; >40 h, Maltose 400 mg/l",1.3
same,effect on α-glucosidase expression,Staphylococcus aureus,activates the α-glucosidase expression
